The values that follow come from US20200039930A1, “PROLINE AMIDE COMPOUNDS AND THEIR AZETIDINE ANALOGUES CARRYING A SPECIFICALLY SUBSTITUTED BENZYL RADICAL” (AbbVie Deutschland GmbH & Co. KG, priority 2017, published 2020).

A short description of data set [1]: Metabolic stability: unbound intrinsic clearance in liver microsomes. It is filed as in vitro ADME. The settings on record: rat; liver microsomes 0.25 mg protein/mL, 0.5 μM compound, pH 7.4, 37° C.; Cl int unbound=Cl int/fu mic; compounds used as acid addition salts; read-out: Cl int, mic unb. (r) (unbound intrinsic clearance). As to the method: Samples of the tested compounds (0.5 μM) were preincubated together with rat liver microsomes (0.25 mg of microsomal protein/mL) in 0.05 M potassium phosphate buffer of pH 7.4 in microtiter plates at 37° C. for 5 minutes. The reaction was started by adding NADPH (1.0 mM). After 0, 5, 10, 15, 20 and 30 minutes, an aliquot was removed, the reaction was cooled and stopped by adding twice the amount of quench solution consisting of acetonitrile/methanol 1:1, and containing […] carbutamide as internal standard. The samples were frozen until analyzed. The remaining concentration of undegraded test substance was determined by liquid chromatography-tandem mass spectrometry (LC-MS/MS). The half-life (t1/2) was determined from the gradient of the ratio of the signal of (test substance/internal standard)/unit time plot, allowing the calculation of the half-life of the test substance, assuming first order kinetics, from the decrease in the concentration of the compound with time. The microsomal clearance (mClint) was calculated as follows: mClint=((ln(2)/t 1/2)/Microsomal Protein Concentration (mg/ml))*1000, leading to the unit of uL/min/mg. The scaled clearance (mClin_scaled) was calculated as mCLint_scaled=m CLint*(Microsomal Yield (mg/kg BW))/1000000*60, leading to the units L/h/kg. The Microsomal Yield is defined by the specifics of the used microsomes. Calculations were modified from refer-ences: Di, The Society for Biomolecular Screening, 2003, 453-462; Obach, D M D, 1999 vol 27. N 11, 1350-1359.
A suspension of 0.25 mg/ml microsomal protein spiked with 0.5 μM of test compound was pipetted on one side of a HTDialysis device (HTDialysis LLC,37 Ledgewood Drive, Gales Fery Conn. 06335) separated by a membrane with a MWcut off 12-14 K. 50 mM K-Phosphate buffer (pH 7.4) was added on the other side of the well. After incubation at 37° C. for 4 h while shaking at 150 rpm, aliquots of both sides were taken, quenched with MeOH/ACN 1:1 and 0.2 μM of internal standard and frozen until analy-sis by LCMSMS.
Cl int unbound=Cl int/fu mic
The compounds were used in form of their respective acid addition salts.
For orientation: Microsomes from liver hold many membrane-bound enzymes, among them those of drug oxidation.

Another data set concerns the target T1, 5-HT2C receptor (Homo sapiens, UniProt P28335).
T1 construct: host or cells: U2OS
Description: Human 5-HT2C functional assay (beta-arrestin2 recruitment, U2OS_HTR2C_β-Arrestin cells). The format is cell-based. The settings on record: compounds used as acid addition salts; for EC50: U2OS_HTR2C_β-Arrestin cells, 1.5 h incubation, read-out: EC50 5-HT2C (potency in functional assay); for Emax: relative efficacy vs response to 10 µM 5-HT or maximal effect of 5-HT (100%). As to the method: The functional activity of compounds of formula I was assayed by incubation with U2OS_HTR2C_β-Arrestin cells (DiscoverX, 93-0289C3) to induce beta-arrestin2 recruitment to the 5-HT2C receptor. The agonist-induced recruitment and proximity of the receptor and beta-arrestin2 leads to complementation and formation of active β-galactosidase. The enzyme complementation results in enzyme activity, which is measured following the termination of the agonist incubation using DiscoveRx's detection reagent, which contains a chemiluminescent substrate which produces a high intensity signal. Cells were plated and a medium-change to a 1% serum containing medium was performed 24 h later. The next day, test compounds were added and incubated for 1.5 h before addition of detection reagent.
The response produced was measured and compared with the response produced by 10 [mu]M 5-HT or the maximal effect induced by 5-HT (defined as 100%) to which it was expressed as a percentage response (relative efficacy). Dose response curves were con-structed using Graphpad Prism (Graph Software Inc.) or using in house adapted software using a 4 parameter dose response model with variable slope (fit=(Bottom+(Top−Bottom)/(1+10^((LogEC50−x)*Hill Slope))res=(y−fit)). Results are compiled in the table below.
A general note: Activated receptors often draw arrestin, which recruitment assays turn into a signal.

T1 sequence (P28335 33-458): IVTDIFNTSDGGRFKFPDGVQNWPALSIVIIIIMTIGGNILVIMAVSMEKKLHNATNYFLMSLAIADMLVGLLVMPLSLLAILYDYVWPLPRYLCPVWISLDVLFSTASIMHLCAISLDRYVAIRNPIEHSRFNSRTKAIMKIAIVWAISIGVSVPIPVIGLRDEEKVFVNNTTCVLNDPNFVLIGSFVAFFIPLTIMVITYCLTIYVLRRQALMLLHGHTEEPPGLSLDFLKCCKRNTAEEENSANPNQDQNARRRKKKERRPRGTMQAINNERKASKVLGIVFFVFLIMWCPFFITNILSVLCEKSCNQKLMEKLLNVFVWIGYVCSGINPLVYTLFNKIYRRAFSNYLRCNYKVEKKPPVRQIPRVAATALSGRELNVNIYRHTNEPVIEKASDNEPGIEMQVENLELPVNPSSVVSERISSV
T1 sequence (P32121 whole entry partner): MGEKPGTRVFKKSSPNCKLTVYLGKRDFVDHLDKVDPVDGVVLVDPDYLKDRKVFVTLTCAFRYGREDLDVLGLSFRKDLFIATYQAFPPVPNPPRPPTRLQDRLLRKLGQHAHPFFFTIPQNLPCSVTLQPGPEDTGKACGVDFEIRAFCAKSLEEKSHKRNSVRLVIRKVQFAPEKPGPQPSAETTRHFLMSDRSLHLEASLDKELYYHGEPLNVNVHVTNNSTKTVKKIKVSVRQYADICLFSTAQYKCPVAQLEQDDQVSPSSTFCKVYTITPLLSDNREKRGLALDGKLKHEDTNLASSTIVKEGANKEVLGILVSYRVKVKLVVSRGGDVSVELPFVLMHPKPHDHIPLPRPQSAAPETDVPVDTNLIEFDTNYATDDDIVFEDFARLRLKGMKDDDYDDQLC

As a reminder, the EC50 is the concentration giving half of the maximal effect. What is called Emax is the maximal effect, on the per cent scale that the assay sets. With `COc1cc(OCc2cccc(F)c2)c(F)cc1CNC(=O)[C@@H]1CCCN1` [Example 1, (2S)—N-[[5-Fluoro-4-[(3-fluorophenyl)methoxy]-2-methoxy-phenyl]methyl]-pyrrolidine-2-carboxamide], the CLint scaled at 0.5 μM in data set [1] lay within 1330 to 4170 mL/min/kg. For the same compound, on 5-HT2C receptor, the EC50 was under 5 nM and the Emax was over 70%.

`COc1cc(OCc2cc(F)cc(F)c2F)c(F)cc1CNC(=O)[C@@H]1CCCN1` [Example 2, (2S)—N-[[5-Fluoro-2-methoxy-4-[(2,3,5-trifluorophenyl)methoxy]phenyl]methyl]-pyrrolidine-2-carboxamide]: in data set [1], the CLint scaled at 0.5 μM was 1330 to 4170 mL/min/kg. Moreover, on 5-HT2C receptor, the EC50 fell in the range of 5 to 15 nM and the Emax was over 70%.

For `COc1cc(OCc2ccc(F)cc2)c(F)cc1CNC(=O)[C@@H]1CCCN1` [Example 3, (2S)—N-[[5-Fluoro-4-[(4-fluorophenyl)methoxy]-2-methoxy-phenyl]methyl]-pyrrolidine-2-carboxamide], the CLint scaled at 0.5 μM in data set [1] lay within 1330 to 4170 mL/min/kg. Further, at 5-HT2C receptor, the EC50 was under 5 nM and the Emax is over 70%.

For the compound `COc1cc(OCc2cccc(F)c2F)c(F)cc1CNC(=O)[C@@H]1CCCN1` [Example 4, (2S)—N-[[4-[(2,3-Difluorophenyl)methoxy]-5-fluoro-2-methoxy-phenyl]methyl]-pyrrolidine-2-carboxamide], the CLint scaled at 0.5 μM in data set [1] fell in the range of 1330 to 4170 mL/min/kg. In addition, on 5-HT2C receptor, the EC50 is 5 to 15 nM and the Emax was over 70%.

As for `COc1cc(OCc2cc(F)cc(F)c2)c(F)cc1CNC(=O)[C@@H]1CCCN1` [Example 5, (2S)—N-[[4-[(3,5-Difluorophenyl)methoxy]-5-fluoro-2-methoxy-phenyl]methyl]-pyrrolidine-2-carboxamide], the CLint scaled at 0.5 μM in data set [1] lay in the range of 1330 to 4170 mL/min/kg. Besides, at 5-HT2C receptor, the EC50 was under 5 nM and the Emax was over 70%.

On to `COc1cc(OCc2ccccc2F)c(F)cc1CNC(=O)[C@@H]1CCCN1` [Example 6, (2S)—N-[[5-Fluoro-4-[(2-fluorophenyl)methoxy]-2-methoxy-phenyl]methyl]-pyrrolidine-2-carboxamide], for which the CLint scaled at 0.5 μM in data set [1] lay in the range of 1330 to 4170 mL/min/kg. In addition, at 5-HT2C receptor, the EC50 lay within 15 to 30 nM and the Emax was over 70%.

For `COc1cc(OCc2c(F)ccc(F)c2Cl)c(F)cc1CNC(=O)[C@@H]1CCCN1` [Example 7, (2S)—N-[[4-[(2-Chloro-3,6-difluoro-phenyl)methoxy]-5-fluoro-2-methoxy-phenyl]-methyl]pyrrolidine-2-carboxamide], the CLint scaled at 0.5 μM in data set [1] lay within 1330 to 4170 mL/min/kg. In addition, on 5-HT2C receptor, the EC50 is 15 to 30 nM and the Emax is over 70%.

With `COc1cc(OCc2ccnc(F)c2)c(F)cc1CNC(=O)[C@@H]1CCCN1` [Example 8, (2S)—N-[[5-fluoro-4-[(2-fluoro-4-pyridyl)methoxy]-2-methoxy-phenyl]methyl]-pyrrolidine-2-carboxamide], the CLint scaled at 0.5 μM in data set [1] is under 500 mL/min/kg. At 5-HT2C receptor, the EC50 is 15 to 30 nM and the Emax was over 70%.

For `COc1cc(OCc2cncc(F)c2)c(F)cc1CNC(=O)[C@@H]1CCCN1` [Example 9, (2S)—N-[[5-Fluoro-4-[(5-fluoro-3-pyridyl)methoxy]-2-methoxy-phenyl]methyl]-pyrrolidine-2-carboxamide], in data set [1], the CLint scaled at 0.5 μM was 500 to 1330 mL/min/kg. At 5-HT2C receptor, the EC50 lay in the range of 15 to 30 nM and the Emax is over 70%.

With `COc1cc(OCc2ccc(C(F)(F)F)nc2)c(F)cc1CNC(=O)[C@@H]1CCCN1` [Example 10, (2S)—N-[[5-fluoro-2-methoxy-4-[[6-(trifluoromethyl)-3-pyridyl]methoxy]phenyl]-methyl]pyrrolidine-2-carboxamide], the CLint scaled at 0.5 μM in data set [1] fell in the range of 500 to 1330 mL/min/kg. For the same compound, at 5-HT2C receptor, the EC50 is 15 to 30 nM and the Emax was over 70%.

As for `COc1cc(OCCc2ccc(F)cc2)c(F)cc1CNC(=O)[C@@H]1CCCN1` [Example 11, (2S)—N-[[5-Fluoro-4-[2-(4-fluorophenyl)ethoxy]-2-methoxy-phenyl]methyl]-pyrrolidine-2-carboxamide], in data set [1], the CLint scaled at 0.5 μM is 1330 to 4170 mL/min/kg. Moreover, at 5-HT2C receptor, the EC50 was in the range of 5 to 15 nM and the Emax is over 70%.
